Patent publication US20250041302A1, “PROLYL HYDROXYLASE DOMAIN INHIBITOR FOR TREATING HEMORRHAGIC OR BURN SHOCK” (THE GOVERNMENT OF THE UNITED STATES, AS REPRESENTED BY THE …, priority 2022, published 2025)
Entries after “also recorded” stand apart in the source; their conditions may differ.

Legend:
[1] = test system: rats with lethal hemorrhagic shock; experiment: Intravenous PHDi in lethal hemorrhagic shock, fixed-volume hemorrhage 65% EBV, FWB at 60 min (FIG. 7-10); assay type: in vivo, Sprague-Dawley rats
Experimental: For the experiments in this disclosure, fixed-volume hemorrhage (65% estimated blood volume (EBV)) was performed in isoflurane anesthetized Sprague-Dawley rats. In this model, the initial 40% of total volume of hemorrhage was performed by continuous blood draw using syringe pump within first 2 min, followed by manually repeatedly drawing 1.5 ml of whole blood every 2 min at 10 min, and 1 ml of whole blood every 3 min thereafter until achieving the targeted volume of hemorrhage, and thus 40% bleeding occurs within the first 2 minutes (fast hemorrhage), another 40% between 2-10 minutes, and the rest 20% between 10-22 minutes (slow hemorrhage).
Then, the animals were treated with 500 u L PHDi (MK-8617 at 1 mg/ml, in a dissolvent composed of 5% DMSO, 10% PEG 400, and 85% normal saline, average dose at 1.24±0.07 mg/kg) or vehicle (n=13 each) intravenously at 20 min after hemorrhage. At 60 min after hemorrhage, surviving animals were resuscitated with fresh whole blood (FWB, 20% EBV) using shed blood collected at 2 min after hemorrhage. The 60 min- or 4 hour survivability was analyzed
For the measurement of metabolites (lactate and HCO3) and ATP, blood samples were harvested at time point 0 (baseline), 20 minutes (prior to PHDi), 60 minutes (prior to fresh whole blood (FWB)), and 240 minutes after polytrauma/hemorrhage.

[2] = test system: swine model of 40% total burned surface area burn; experiment: Porcine burn shock pilot study, 40% total burned surface area contact burn; assay type: in vivo, Juvenile female Yorkshire swine; details: for BE / HCO3 / Lactate / TCO2 / arterial blood gas pH / pCO2 / pO2 / sO2: 4 Hours after Burn; for Alanine Aminotransferase / Albumin / Alkaline Phosphatase / Amylase / Aspartate Aminotransferase / BUN / Basophils / Bicarbonate / Calculated Osmolality / Cellular Hemoglobin (Optical) / Cellular Hemoglobin Concentration Mean (Optical) / Chloride / Eosinophils / Glucose / Hematocrit / Hemoglobin / Hemoglobin Distribution Width / Large Unstained Cells / Lipase / Lymphocytes / Mean Corpuscular Hemoglobin / Mean Corpuscular Hemoglobin Concentration / Mean Corpuscular Volume / Mean Platelet Volume / Monocytes / Myoglobin / Neutrophils / Platelets / Potassium / Red Blood Cells / Red Cell Distribution Width / Sodium / Total Protein / White Blood Cells / Creatinine: 24 Hours after Burn; for mortalities: n=4, over 48 hours
Experimental: Using n=12 animals, we performed a pilot study of the effects of HIF-1α pathway activation with MK-8617 on survival time and volume of resuscitation fluid required to maintain urine output over 48 hours in a swine model of 40% total burned surface area mixed deep and partial thickness contact burn. Animals were block randomized into three groups, including control (vehicle only; n=4), low-dose (15 mg; n=4) and high-dose (50 mg; n=4). MK-8617 for injection was dissolved in a 45:5:50 mixture of polyethylene glycol (molecular weight: 400 daltons): dimethylsulfoxide: saline with pH adjusted to 8.4. Juvenile female Yorkshire swine weighing between 35-50 kg underwent open surgical splenectomy, then were allowed to recover for a minimum of two weeks before instrumentation with central venous and arterial lines and experimental burn. Animals received an injection of MK-8617 or vehicle at 30 minutes after burn followed by a standard-of-care crystalloid resuscitation with lactated Ringer's solution starting at 60 minutes after burn-we used a custom-built, fully closed-loop, automated resuscitation system based on the Burn Navigator to deliver goal-directed resuscitation with a target urine output of 30-50 ml/hr. Time to mortality, total fluid volumes infused, urine output generated, and serological measures of organ function were measured. Investigators remained blinded to treatment allocations until after data analysis was complete. Survival was analyzed using a log-rank test followed by a Tukey's studentized range multiple comparisons adjustment. Serological measures were analyzed using a linear model with baseline correction followed by a Tukey-Kramer multiple comparisons adjustment.

[3] = low and high dose versus control

COc1ccc(C(NC(=O)c2cnc(-c3cccnn3)nc2O)c2ccc(OC)cc2)cc1 [MK-8617, N-[Bis(4-methoxyphenyl)methyl]-4-hydroxy-2-(pyridazin-3-yl)pyrimidine-5-carboxamide]
MAP ([1]; 10 min after treatment, i.v. 1.24±0.07 mg/kg at 20 min after hemorrhage, vehicle 31.3±1.1, p=0.02): 35.9±1.2 mmHg
MAP after whole blood resuscitation (FWB) ([1]; PHDi treated animals, FWB at 60 min): partial restoration of MAP
time to death ([1]; acute administration): extends the time to death
reduction in the elevation of lactate as compared with vehicle ([1]; at 60 min): about 30%
lactate after whole blood resuscitation ([1]; at 4 hr after transfusion): reduced lactate
60 min survivability ([1]; n=13, vehicle 15%, p=0.03): 62%
prothrombin time (PT) ([1]; surviving animals at 60 min and 4 hours followed by whole blood resuscitation): significantly elevated
animals surviving for 4 hours after hemorrhage among those that received whole blood resuscitation ([1]; vehicle 1 of 2, p=0.036): 6 of 8
BE ([2]; High Dose (50 mg)): 3.75 ± 2.99 mmol/L
HCO3 ([2]; High Dose (50 mg)): 28.18 ± 2.44 mmol/L
Lactate ([2]; High Dose (50 mg)): 6.98 ± 3.09 mmol/L
TCO2 ([2]; High Dose (50 mg)): 29.50 ± 2.52 mmol/L
arterial blood gas pH ([2]; High Dose (50 mg)): 7.43±0.05
pCO2 ([2]; High Dose (50 mg)): 42.25 ± 4.07 mmHg
pO2 ([2]; High Dose (50 mg)): 209.00 ± 2.45 mmHg
sO2 ([2]; High Dose (50 mg)): 100 ± 0%
Alanine Aminotransferase ([2]; High Dose (50 mg)): 50.00 ± 10.23 U/L
Albumin ([2]; High Dose (50 mg)): 0.55 ± 0.19 g/dL
Alkaline Phosphatase ([2]; High Dose (50 mg)): 159.75 ± 39.11 U/L
Amylase ([2]; High Dose (50 mg)): 58577 ± 41616 U/L
Aspartate Aminotransferase ([2]; High Dose (50 mg)): 98.75 ± 37.56 U/L
BUN ([2]; High Dose (50 mg)): 18.75 ± 1.65 mg/dL
Basophils ([2]; High Dose (50 mg)): 0.13 ± 0.05%
Bicarbonate ([2]; High Dose (50 mg)): 26.90 ± 1.65 mmol/L
Calculated Osmolality ([2]; High Dose (50 mg)): 290.00 ± 9.49
Cellular Hemoglobin (Optical) ([2]; High Dose (50 mg)): 16.3 ± 0.66 pg
Cellular Hemoglobin Concentration Mean (Optical) ([2]; High Dose (50 mg)): 31.30 ± 0.86 g/dL
Chloride ([2]; High Dose (50 mg)): 108.25 ± 4.99 mmol/L
Eosinophils ([2]; High Dose (50 mg)): 0.18 ± 0.05%
Glucose ([2]; High Dose (50 mg)): 69.50 ± 3.70 mg/dL
Hematocrit ([2]; High Dose (50 mg)): 29.93 ± 2.01%
Hemoglobin ([2]; High Dose (50 mg)): 9.60 ± 0.51 g/dL
Hemoglobin Distribution Width ([2]; High Dose (50 mg)): 1.78 ± 0.15 g/dL
Large Unstained Cells ([2]; High Dose (50 mg)): 0.88 ± 0.17%
Lipase ([2]; High Dose (50 mg)): 155.67 ± 71.84 U/L
Lymphocytes ([2]; High Dose (50 mg)): 38.78 ± 9.52%
Mean Corpuscular Hemoglobin ([2]; High Dose (50 mg)): 16.75 ± 0.60 pg
Mean Corpuscular Hemoglobin Concentration ([2]; High Dose (50 mg)): 32.18 ± 0.59 g/dL
Mean Corpuscular Volume ([2]; High Dose (50 mg)): 52.05 ± 0.97 fL
Mean Platelet Volume ([2]; High Dose (50 mg)): 11.53 ± 1.06 fL
Monocytes ([2]; High Dose (50 mg)): 1.98 ± 0.71%
Myoglobin ([2]; High Dose (50 mg)): 502.50 ± 148.23 ng/mL
Neutrophils ([2]; High Dose (50 mg)): 58.05 ± 9.81%
Platelets ([2]; High Dose (50 mg)): 363 ± 32 10³ cells/µL
Potassium ([2]; High Dose (50 mg)): 4.58 ± 0.85 mmol/L
Red Blood Cells ([2]; High Dose (50 mg)): 5.75 ± 0.47 10^6 cells/μL
Red Cell Distribution Width ([2]; High Dose (50 mg)): 15.55 ± 0.61%
Sodium ([2]; High Dose (50 mg)): 145.50 ± 4.51 mmol/L
Total Protein ([2]; High Dose (50 mg)): 4.38 ± 0.78 g/dL
White Blood Cells ([2]; High Dose (50 mg)): 17.5 ± 4.92 10³ cells/µL
Creatinine ([2]; High Dose (50 mg), adjusted p=0.04 versus low dose): 1.53 ± 0.28 mg/dL
BE ([2]; Low Dose (15 mg)): -3.00 ± 5.48 mmol/L
HCO3 ([2]; Low Dose (15 mg)): 22.30 ± 4.08 mmol/L
Lactate ([2]; Low Dose (15 mg)): 11.84 ± 4.55 mmol/L
TCO2 ([2]; Low Dose (15 mg)): 23.75 ± 4.11 mmol/L
arterial blood gas pH ([2]; Low Dose (15 mg)): 7.35 ± 0.10
pCO2 ([2]; Low Dose (15 mg)): 38.40 ± 5.69 mmHg
sO2 ([2]; Low Dose (15 mg)): 100 ± 0%
pO2 ([2]; Low Dose (15 mg), adjusted p=0.007 versus control): 191.75 ± 14.73 mmHg
Alanine Aminotransferase ([2]; Low Dose (15 mg)): 31.00 ± 36.77 U/L
Albumin ([2]; Low Dose (15 mg)): 0.50 ± 0.00 g/dL
Alkaline Phosphatase ([2]; Low Dose (15 mg)): 201.50 ± 10.61 U/L
Amylase ([2]; Low Dose (15 mg)): 234170 ± 286731 U/L
Aspartate Aminotransferase ([2]; Low Dose (15 mg)): 119.00 ± 80.61 U/L
Basophils ([2]; Low Dose (15 mg)): 0.20 ± 0.00%
Bicarbonate ([2]; Low Dose (15 mg)): 24.95 ± 2.62 mmol/L
Calculated Osmolality ([2]; Low Dose (15 mg)): 291.50 ± 10.61
Cellular Hemoglobin (Optical) ([2]; Low Dose (15 mg)): 15.8 ± 0.42 pg
Cellular Hemoglobin Concentration Mean (Optical) ([2]; Low Dose (15 mg)): 30.45 ± 0.49 g/dL
Chloride ([2]; Low Dose (15 mg)): 108.50 ± 3.54 mmol/L
Creatinine ([2]; Low Dose (15 mg)): 2.01 ± 0.16 mg/dL
Eosinophils ([2]; Low Dose (15 mg)): 0.40 ± 0.00%
Glucose ([2]; Low Dose (15 mg)): 46.00 ± 26.87 mg/dL
Hematocrit ([2]; Low Dose (15 mg)): 29.35 ± 0.64%
Hemoglobin ([2]; Low Dose (15 mg)): 9.55 ± 0.35 g/dL
Hemoglobin Distribution Width ([2]; Low Dose (15 mg)): 1.74 ± 0.17 g/dL
Large Unstained Cells ([2]; Low Dose (15 mg)): 0.80 ± 0.00%
Lipase ([2]; Low Dose (15 mg)): 19059.00 ± 26899.76 U/L
Lymphocytes ([2]; Low Dose (15 mg)): 37.55 ± 18.46%
Mean Corpuscular Hemoglobin ([2]; Low Dose (15 mg)): 16.85 ± 0.49 pg
Mean Corpuscular Hemoglobin Concentration ([2]; Low Dose (15 mg)): 32.45 ± 0.49 g/dL
Mean Corpuscular Volume ([2]; Low Dose (15 mg)): 52.05 ± 0.78 fL
Mean Platelet Volume ([2]; Low Dose (15 mg)): 14.90 ± 2.69 fL
Monocytes ([2]; Low Dose (15 mg)): 1.05 ± 0.78%
Myoglobin ([2]; Low Dose (15 mg)): 425.50 ± 318.91 ng/mL
Neutrophils ([2]; Low Dose (15 mg)): 60.05 ± 17.61%
Platelets ([2]; Low Dose (15 mg)): 329 ± 228 10³ cells/µL
Potassium ([2]; Low Dose (15 mg)): 4.75 ± 0.78 mmol/L
Red Blood Cells ([2]; Low Dose (15 mg)): 5.64 ± 0.05 10^6 cells/μL
Red Cell Distribution Width ([2]; Low Dose (15 mg)): 15.25 ± 0.78%
Sodium ([2]; Low Dose (15 mg)): 145.00 ± 5.66 mmol/L
Total Protein ([2]; Low Dose (15 mg)): 4.05 ± 0.07 g/dL
White Blood Cells ([2]; Low Dose (15 mg)): 24 ± 18.9 10³ cells/µL
BUN ([2]; Low Dose (15 mg), adjusted p=0.03 versus control): 29.00 ± 2.83 mg/dL
mortalities ([2]; high dose 50 mg): no mortalities
metabolic / lactic acidosis after burn ([2]; high dose 50 mg, not statistically significant): may ameliorate metabolic acidosis; also recorded: may improve lactic acidosis
effect on mortality, high dose versus low dose ([2]; high dose 50 mg, not versus control): significantly out-performing the low dose group
resuscitation fluid required [2, 3]: no statistically significant differences; also recorded: did not appear to reduce resuscitation volumes
urine output generated [2, 3]: no statistically significant differences; also recorded: did not appear to reduce resuscitation volumes or improve urine output
mortalities ([2]; low dose 15 mg): three
time to mortality, low dose versus high dose ([2]; low dose 15 mg, p=0.044): significantly worse time to mortality
